Laboratory results as given in ChEMBL document CHEMBL1156714, “Microwave induced synthesis of novel 8,9-dihydro-7H-pyrimido[4,5-b][1,4]diazepines as potential antitumor agents” (2008).

Tests used:
Type in all cases: functional
LOX IMVI = test: Growth inhibition of human LOX IMVI cells after 48 hrs by SRB assay
SF-268 = test: Growth inhibition of human SF268 cells after 48 hrs by SRB assay; conditions: SF-268, 48 h
UO-31 = test: Growth inhibition of human UO31 cells after 48 hrs by SRB assay; conditions: UO-31, 48 h
HCC 2998 = test: Growth inhibition of human HCC2998 cells after 48 hrs by SRB assay; conditions: HCC 2998, 48 h
NCI-H522 = test: Growth inhibition of human NCI-H522 cells after 48 hrs by SRB assay; conditions: NCI-H522, 48 h
[1] = Growth inhibition of human […] cells after 48 hrs by SRB assay
SK-MEL-28 = test: Growth inhibition of human SK-MEL-28 cells after 48 hrs by SRB assay; conditions: SK-MEL-28, 48 h
[2] = read-out: LC50 (the source's name)

SMILES: Cc1ccc(C2=Nc3c(N)ncnc3NC(c3ccc4c(c3)OCO4)C2)cc1 (racemic)
- GI50 (LOX IMVI): 6.38 µM
- CC50 (LOX IMVI; [2]): 81.5 µM
- GI50 (SF-268): 4.06 µM
- LC50 (50% lethal concentration) (SF-268): 52.2 µM
- GI50 (UO-31): 10.8 µM
- CC50 (UO-31; [2]): 65.2 µM
- GI50 (HCC 2998): 6.29 µM
- LC50 (concentration killing 50% of cells) (HCC 2998): > 100 µM
- GI50 (NCI-H522): 3.67 µM
- CC50 (NCI-H522; [2]): > 100 µM
- GI50 [1]: 13.5 µM
- CC50 [1, 2]: > 100 µM
- GI50 (SK-MEL-28): 10.2 µM
- CC50 (SK-MEL-28; [2]): > 100 µM
